Results taken from article PMC10378394 (Current Issues in Molecular Biology, 2023).

Assays:
[1] = molecular target: PI3Kinase(p110a(E545K)/p85a)(m) (Mus musculus, UniProt P42337, E545K); test: Eurofins kinase assay
IGF-1R(h) = IGF-1R(h) (Homo sapiens, UniProt P08069); test: Eurofins kinase assay
PKCη(h) = PKCη(h) (Homo sapiens, UniProt P24723); test: Eurofins kinase assay
IL-10 = test: Western blot of IL-10; format: in vivo, mouse; settings: normalized to β-actin
[2] = system: MEK and ERK phosphorylation; test: Western blot in LS513 cells; format: cell-based, human
Method: (§1) In 6-well plates, LS513 cells were seeded and allowed to adhere and proliferate for 24 h. […] After treatment, the cells were harvested using RIPA lysis buffer to extract cellular proteins. The cell lysates were subjected to Western blot analysis. Antibodies specific to phosphorylated epidermal growth factor receptor (p-EGFR, Cell Signaling Technology, Danvers, MA, USA, #2234S), epidermal growth factor receptor (EGFR, Cell Signaling Technology #2232S), phosphorylated vascular endothelial growth factor receptor (p-VEGFR, Cell Signaling Technology #3770S), vascular endothelial growth factor receptor (VEGFR, Cell Signaling Technology #2479S), phosphorylated Akt (p-Akt, Cell Signaling Technology #9271S), Akt (Cell Signaling Technology #9272S), phosphorylated MEK (p-MEK, Cell Signaling Technology #9121S), MEK (Cell Signaling Technology #9122), phosphorylated ERK (p-ERK, Cell Signaling Technology #9101S), and ERK (Cell Signaling Technology #9102S) were used for protein detection. The antibodies were diluted 1:1000 for the specific target proteins. In addition, a β-actin antibody (Sigma-Aldrich, Seoul, Republic of Korea, #A5441) diluted 1:5000 was used as a loading control. Bone-marrow-derived macrophages (BMDMs) were plated and allowed to adhere and proliferate for 24 h. […] Subsequently, the cells were stimulated with recombinant human angiopoietin-2 (R&D Systems, Minneapolis, MN, USA, #623-AN) and CSF1 (Peprotech, #300-25) for 15 min. After stimulation, protein samples were obtained from the cells. The cell lysates were analyzed by Western blot using specific antibodies, such as p-CSF1R (Cell Signaling, #14591S), CSF1R (Cell Signaling, #67455S), p-TIE2 (Cell Signaling, #4221S), and TIE2 (Santa Cruz Biotechnology, Dallas, TX, USA, #sc-293414), to detect and analyze the respective proteins.

AKT phosphorylation = test: Western blot in LS513 cells; format: cell-based, human; settings: LS513, 1 h treatment
Method: as §1

ATM(h) = ATM(h) (Homo sapiens, UniProt Q13315); test: Eurofins kinase assay
PKCζ(h) = PKCζ(h) (Homo sapiens, UniProt Q05513); test: Eurofins kinase assay
PKBα(h) = PKBα(h) (Homo sapiens, UniProt P31749); test: Eurofins kinase assay
PKBα(h), sequence (P31749 whole entry): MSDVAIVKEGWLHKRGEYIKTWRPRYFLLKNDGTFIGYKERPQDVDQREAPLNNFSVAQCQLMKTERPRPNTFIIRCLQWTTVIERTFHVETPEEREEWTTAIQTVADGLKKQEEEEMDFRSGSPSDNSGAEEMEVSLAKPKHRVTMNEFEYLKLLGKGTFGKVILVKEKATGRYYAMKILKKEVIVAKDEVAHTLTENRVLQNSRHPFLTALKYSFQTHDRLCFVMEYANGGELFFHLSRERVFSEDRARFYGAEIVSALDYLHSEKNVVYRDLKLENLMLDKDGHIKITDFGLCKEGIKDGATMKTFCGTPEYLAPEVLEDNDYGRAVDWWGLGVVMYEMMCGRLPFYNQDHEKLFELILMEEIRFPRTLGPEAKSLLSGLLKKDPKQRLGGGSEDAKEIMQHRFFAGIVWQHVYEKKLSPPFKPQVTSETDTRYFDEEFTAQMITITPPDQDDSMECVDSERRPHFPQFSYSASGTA

PDGFRα(h) = PDGFRα(h) (Homo sapiens, UniProt P16234); test: Eurofins kinase assay
Ros(h) = Ros(h) (Homo sapiens, UniProt P08922); test: Eurofins kinase assay
PRK2(h) = PRK2(h) (Homo sapiens, UniProt Q16513); test: Eurofins kinase assay
MC38 syngeneic tumor = test: In vivo efficacy, syngeneic model; design: species or system C57BL/6 mice; settings: 80 mg/kg po QD
Method: (§2) Human-derived colorectal cancer cell lines, LS513, HCT-116, and HT29, were subcutaneously transplanted into 6-week-old female BALB/c nude mice to establish tumor models. Additionally, the mouse cancer cell line MC38 was subcutaneously transplanted into 6-week-old female and C57BL/6 mice to induce tumor formation. […]. The treatments were administered orally once daily for 2 weeks based on the growth rate observed in the vehicle group. Tumor volume was evaluated three times a week using the formula Tumor volume (TV) = (tumor short diameter ^2 × tumor long diameter)/2. The body weight of the mice was measured three times a week to assess potential toxicity in vivo. […]

PKCμ(h) = PKCμ(h) (Homo sapiens, UniProt Q15139); test: Eurofins kinase assay
PKCμ(h), sequence (Q15139 whole entry): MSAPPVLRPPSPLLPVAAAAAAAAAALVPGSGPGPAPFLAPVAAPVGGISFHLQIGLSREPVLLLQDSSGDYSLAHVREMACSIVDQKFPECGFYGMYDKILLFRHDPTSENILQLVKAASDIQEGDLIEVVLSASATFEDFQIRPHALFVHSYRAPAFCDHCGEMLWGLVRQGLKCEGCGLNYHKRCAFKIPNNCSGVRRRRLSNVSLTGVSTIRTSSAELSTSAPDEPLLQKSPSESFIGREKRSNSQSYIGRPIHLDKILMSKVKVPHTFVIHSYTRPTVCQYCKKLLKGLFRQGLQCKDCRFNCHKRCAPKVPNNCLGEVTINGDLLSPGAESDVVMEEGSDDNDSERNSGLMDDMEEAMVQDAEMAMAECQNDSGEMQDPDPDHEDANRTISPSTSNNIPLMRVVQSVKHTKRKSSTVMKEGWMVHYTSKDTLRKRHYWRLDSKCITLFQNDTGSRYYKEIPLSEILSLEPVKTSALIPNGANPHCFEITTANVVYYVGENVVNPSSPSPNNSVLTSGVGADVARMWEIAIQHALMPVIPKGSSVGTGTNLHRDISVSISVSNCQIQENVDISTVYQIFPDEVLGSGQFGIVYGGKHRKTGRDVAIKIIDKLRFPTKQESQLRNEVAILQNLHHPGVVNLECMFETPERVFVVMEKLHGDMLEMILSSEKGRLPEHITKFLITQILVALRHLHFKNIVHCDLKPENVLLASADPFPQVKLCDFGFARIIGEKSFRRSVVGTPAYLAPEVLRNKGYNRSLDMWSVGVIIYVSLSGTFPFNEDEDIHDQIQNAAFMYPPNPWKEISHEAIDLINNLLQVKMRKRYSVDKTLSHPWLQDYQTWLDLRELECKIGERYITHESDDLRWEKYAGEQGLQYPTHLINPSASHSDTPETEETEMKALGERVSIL

Bmx(h) = Bmx(h) (Homo sapiens, UniProt P51813); test: Eurofins kinase assay
Bmx(h), sequence (P51813 whole entry): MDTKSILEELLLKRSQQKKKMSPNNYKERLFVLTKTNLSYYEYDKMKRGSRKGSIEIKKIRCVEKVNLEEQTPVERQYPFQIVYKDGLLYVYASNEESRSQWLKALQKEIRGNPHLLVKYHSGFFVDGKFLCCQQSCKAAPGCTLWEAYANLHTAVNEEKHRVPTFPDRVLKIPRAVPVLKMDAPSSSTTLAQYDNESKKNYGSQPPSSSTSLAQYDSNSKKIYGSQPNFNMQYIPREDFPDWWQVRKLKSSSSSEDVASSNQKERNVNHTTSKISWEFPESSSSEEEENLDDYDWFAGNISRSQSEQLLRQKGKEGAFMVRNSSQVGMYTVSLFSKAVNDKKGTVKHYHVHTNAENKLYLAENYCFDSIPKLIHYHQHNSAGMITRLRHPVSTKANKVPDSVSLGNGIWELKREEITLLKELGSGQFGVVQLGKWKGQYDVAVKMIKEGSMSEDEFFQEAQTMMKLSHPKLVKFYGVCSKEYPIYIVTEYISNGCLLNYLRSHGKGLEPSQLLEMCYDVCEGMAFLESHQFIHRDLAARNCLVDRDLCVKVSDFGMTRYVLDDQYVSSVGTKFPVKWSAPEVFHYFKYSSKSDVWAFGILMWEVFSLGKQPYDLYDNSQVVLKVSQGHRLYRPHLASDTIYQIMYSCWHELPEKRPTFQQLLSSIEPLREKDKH

CDK6/cyclinD3(h) = CDK6/cyclinD3(h) (Homo sapiens, UniProt Q00534); test: Eurofins kinase assay
PDGFRβ(h) = PDGFRβ(h) (Homo sapiens, UniProt P09619); test: Eurofins kinase assay
CHK1(h) = CHK1(h) (Homo sapiens, UniProt O14757); test: Eurofins kinase assay
CHK1(h), sequence (O14757 whole entry): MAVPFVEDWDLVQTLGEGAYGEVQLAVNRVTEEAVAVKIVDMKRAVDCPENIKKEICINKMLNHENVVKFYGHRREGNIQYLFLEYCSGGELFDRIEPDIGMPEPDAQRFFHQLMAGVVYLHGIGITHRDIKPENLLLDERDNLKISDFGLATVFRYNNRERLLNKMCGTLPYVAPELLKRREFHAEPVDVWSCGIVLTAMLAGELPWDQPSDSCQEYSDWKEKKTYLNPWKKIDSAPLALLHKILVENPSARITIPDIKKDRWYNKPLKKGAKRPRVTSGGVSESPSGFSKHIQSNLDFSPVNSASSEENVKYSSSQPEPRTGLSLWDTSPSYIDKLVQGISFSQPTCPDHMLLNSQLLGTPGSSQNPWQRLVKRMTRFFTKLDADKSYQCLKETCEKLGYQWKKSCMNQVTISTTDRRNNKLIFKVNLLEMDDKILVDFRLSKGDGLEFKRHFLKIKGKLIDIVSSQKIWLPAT

Yes(h) = Yes(h) (Homo sapiens, UniProt P07947); test: Eurofins kinase assay
[3] = Single oral dose, central nervous system; format: in vivo, ICR mice; settings: single oral dose 500 mg/kg
[4] = system: LS513 (KRAS G12D) xenograft; test: In vivo efficacy, xenograft; design: species or system BALB/c nude mice; settings: day 17
Method: as §2

[5] = system: HT29 (BRAF V600E) xenograft; test: In vivo efficacy, xenograft; design: species or system BALB/c nude mice
Method: as §2

BRAF (V600E) = BRAF (V600E) (Homo sapiens, UniProt P15056, V600E); test: Eurofins kinase assay
MAPK1(h) = MAPK1(h) (Homo sapiens, UniProt P27361); test: Eurofins kinase assay
MAPK1(h), sequence (P27361 whole entry): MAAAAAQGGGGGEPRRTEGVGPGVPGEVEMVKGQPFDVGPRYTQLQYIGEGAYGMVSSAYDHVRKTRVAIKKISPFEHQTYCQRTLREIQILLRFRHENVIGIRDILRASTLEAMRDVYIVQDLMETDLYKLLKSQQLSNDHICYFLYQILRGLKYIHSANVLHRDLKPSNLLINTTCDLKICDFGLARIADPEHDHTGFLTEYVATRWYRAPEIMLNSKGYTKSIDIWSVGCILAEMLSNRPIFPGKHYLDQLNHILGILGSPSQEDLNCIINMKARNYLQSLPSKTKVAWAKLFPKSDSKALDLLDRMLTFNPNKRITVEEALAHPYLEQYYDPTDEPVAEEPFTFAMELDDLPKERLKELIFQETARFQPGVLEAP

[6] = molecular target: PI3Kinase(p110a(E542K)/p85a)(m) (Mus musculus, UniProt P42337, E542K); test: Eurofins kinase assay

IGF-1R(h), sequence (P08069 31-1367): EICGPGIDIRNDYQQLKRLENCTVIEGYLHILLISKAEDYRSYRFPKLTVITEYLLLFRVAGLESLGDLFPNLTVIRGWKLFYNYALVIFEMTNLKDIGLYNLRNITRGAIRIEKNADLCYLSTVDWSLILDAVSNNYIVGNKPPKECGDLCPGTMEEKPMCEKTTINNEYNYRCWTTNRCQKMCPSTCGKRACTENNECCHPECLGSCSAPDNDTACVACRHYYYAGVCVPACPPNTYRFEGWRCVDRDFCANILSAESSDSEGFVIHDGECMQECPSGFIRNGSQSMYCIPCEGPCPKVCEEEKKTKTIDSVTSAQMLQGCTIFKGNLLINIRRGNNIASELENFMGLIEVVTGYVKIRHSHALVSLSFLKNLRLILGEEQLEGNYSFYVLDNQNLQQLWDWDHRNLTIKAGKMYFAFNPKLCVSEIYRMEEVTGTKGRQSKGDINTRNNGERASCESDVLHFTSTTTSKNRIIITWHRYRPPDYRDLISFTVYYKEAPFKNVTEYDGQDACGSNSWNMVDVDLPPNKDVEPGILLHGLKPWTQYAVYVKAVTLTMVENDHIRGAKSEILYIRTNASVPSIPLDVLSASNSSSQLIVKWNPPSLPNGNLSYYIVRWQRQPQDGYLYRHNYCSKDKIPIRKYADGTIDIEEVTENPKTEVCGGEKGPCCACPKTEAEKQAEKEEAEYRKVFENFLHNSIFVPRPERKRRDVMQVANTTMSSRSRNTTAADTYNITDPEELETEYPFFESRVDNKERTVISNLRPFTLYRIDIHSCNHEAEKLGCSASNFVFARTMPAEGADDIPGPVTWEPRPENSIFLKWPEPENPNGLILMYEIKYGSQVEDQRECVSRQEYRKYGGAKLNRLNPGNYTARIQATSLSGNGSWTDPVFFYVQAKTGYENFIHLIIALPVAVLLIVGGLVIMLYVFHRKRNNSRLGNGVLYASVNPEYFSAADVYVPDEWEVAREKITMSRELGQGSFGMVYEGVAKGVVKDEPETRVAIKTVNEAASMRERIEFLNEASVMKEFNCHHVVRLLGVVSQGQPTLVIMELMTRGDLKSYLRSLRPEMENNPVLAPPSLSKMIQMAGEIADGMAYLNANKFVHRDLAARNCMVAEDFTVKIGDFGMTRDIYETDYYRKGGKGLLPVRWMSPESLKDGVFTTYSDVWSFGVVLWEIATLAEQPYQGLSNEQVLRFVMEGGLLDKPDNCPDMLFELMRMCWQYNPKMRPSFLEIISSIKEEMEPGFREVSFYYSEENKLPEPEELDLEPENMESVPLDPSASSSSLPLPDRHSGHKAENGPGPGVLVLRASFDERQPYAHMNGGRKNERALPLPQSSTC
PKCη(h), sequence (P24723 whole entry): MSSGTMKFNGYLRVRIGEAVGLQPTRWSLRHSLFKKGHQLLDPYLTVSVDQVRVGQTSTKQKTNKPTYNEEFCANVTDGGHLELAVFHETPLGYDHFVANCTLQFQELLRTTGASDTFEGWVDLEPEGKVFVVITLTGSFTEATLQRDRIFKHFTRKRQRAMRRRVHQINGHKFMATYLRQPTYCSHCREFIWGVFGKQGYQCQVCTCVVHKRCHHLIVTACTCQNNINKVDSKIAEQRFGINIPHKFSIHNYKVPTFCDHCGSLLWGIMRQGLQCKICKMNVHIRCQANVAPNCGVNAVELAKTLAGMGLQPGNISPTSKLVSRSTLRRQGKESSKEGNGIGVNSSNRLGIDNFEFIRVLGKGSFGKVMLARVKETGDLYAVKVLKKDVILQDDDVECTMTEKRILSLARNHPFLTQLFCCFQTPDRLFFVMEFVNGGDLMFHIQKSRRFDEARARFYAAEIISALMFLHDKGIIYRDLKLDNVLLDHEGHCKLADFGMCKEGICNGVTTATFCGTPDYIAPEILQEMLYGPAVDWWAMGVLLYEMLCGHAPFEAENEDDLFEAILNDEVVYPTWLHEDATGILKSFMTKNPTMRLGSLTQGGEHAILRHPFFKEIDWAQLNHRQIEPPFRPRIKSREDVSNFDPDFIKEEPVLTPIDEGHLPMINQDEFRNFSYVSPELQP

O=C(Nc1cc(Nc2ncccc2-c2ncnc3[nH]cnc23)ccc1F)c1cc(C(F)(F)F)cc(C(F)(F)F)c1 [SJ-C1044, N-(5-(3-(9H-purin-6-yl)pyridin-2-ylamino)-2-fluorophenyl)-3,5-bis(trifluoromethyl)benzamide]
inhibition at 10 µM [1]: 20% | inhibition at 10 µM (IGF-1R(h)): -24% | inhibition at 10 µM (PKCη(h)): 3% | IL-10 protein expression (IL-10): 33 % CTL | paradoxical activation of MEK and ERK ([2]; KRAS-mutated colorectal cancer cells): without any evidence of paradoxical activation | MEK and ERK phosphorylation ([2]; LS513, 1 h treatment): inhibited MEK and ERK phosphorylation potently | AKT phosphorylation (AKT phosphorylation): no detectable difference | inhibition at 10 µM (ATM(h)): 12% | inhibition at 10 µM (PKCζ(h)): 1% | inhibition at 10 µM (PKBα(h)): 15% | inhibition at 10 µM (PDGFRα(h)): -10% | inhibition at 10 µM (Ros(h)): -12% | inhibition at 10 µM (PRK2(h)): -2% | TGI (MC38 syngeneic tumor; 14 days): 88% | MC38 tumor growth in vivo (MC38 syngeneic tumor; compared to the control): completely inhibited | inhibition at 10 µM (PKCμ(h)): -3% | inhibition at 10 µM (Bmx(h)): -1% | inhibition at 10 µM (CDK6/cyclinD3(h)): -5% | inhibition at 10 µM (PDGFRβ(h)): 11% | inhibition at 10 µM (CHK1(h)): -2% | inhibition at 10 µM (Yes(h)): 17% | central nervous system changes [3]: did not result in any abnormal changes | TGI ([4]; 20 mg/kg po QD): 50% | TGI ([4]; 40 mg/kg po QD): 63% | TGI ([4]; 80 mg/kg po QD): 66% | TGI ([5]; 20 mg/kg po QD): 58% | TGI ([5]; 40 mg/kg po QD): 94% | TGI ([5]; 80 mg/kg po QD): 117% | inhibition at 10 µM (BRAF (V600E)): 80% | inhibition at 10 µM (MAPK1(h)): -3% | inhibition at 10 µM [6]: 24%
